Measured values reported in patent US11890349B2, “Treatment of inflammatory diseases with inhibitors of C5A activity” (InflaRx GmbH, priority 2017, dated 2024).

Assays:
[1] = system: CD11b upregulation on the surface of neutrophils; test: Human CD11b potency assay (flow cytometric assay) with HS patient plasma or rhC5a-spiked human plasma; format: cell-based
From the text: Accumulation of neutrophils at the site of inflammation is dependent on the expression of adhesion molecules, including CD11b (also known as integrin alpha M) (Larson and Springer, 1990; Carlos and Harlan, 1990). Upregulation and mobilizing of CD11b/CD18 from intracellular pools to the surface of neutrophils is essential for the rolling action and migration of human neutrophils (Smith et al., 1989). Enhanced expression of CD11b/CD18 therefore reflects an inflammatory triggering event. The human CD11b assay is conducted using flow cytometry to detect FITC-conjugated anti-CD11b antibody on the surface of neutrophils. Activated complement products, especially elevated endogenous C5a (eC5a) in HS patient plasma samples can strongly upregulate CD11b expression through the binding of C5a to its receptor C5aR (CD88) on neutrophils. Consequently, blockade of the C5a-C5aR axis is expected to abolish or attenuate CD11b upregulation on the surface of neutrophils.
Two patient plasma samples Pat. 088 and Pat. 092 (5 μL) were incubated with fresh human blood (60 μL, as source of neutrophils) in the absence or presence of C5a-C5aR axis blockers (anti-C5a antibody IFX-1, anti-C5aR antibodies clone S5/1 and clone 7H110, C5aR antagonist PMX-53, and C5aR inhibitor Avacopan; 10 μL) in a total volume of 100 μL. Two control plasma samples (Ctrl 009 and Ctrl 010, 5 μL) prepared according to the procedure applied to the patient samples served as controls for unspecific activation. Blood with only saline (40 μL) or normal human plasma pool (huPP 5 μL+saline 35 μL) served as the non-stimulated control to define the baseline expression of CD11b. Blood sample with normal human plasma pool and spiked with recombinant human C5a (rhC5a) mimicked the stimulated condition. All samples were incubated at 37° C. for 20 min to activate CD11b upregulation. After cooling on ice, 2 μL of FITC-conjugated anti-mouse CD11b antibody was added to the samples. The labeled samples were kept on ice in the dark for another 30-min to minimize the background signal. Red blood cells were then lysed with 1×FACS Lysing solution at room temperature for 10 min. 2 mL Staining buffer was used to wash the remaining cells twice. After centrifugation at 2500 rpm for 3 min, cells were resuspended in 0.5 mL Staining buffer and ready for FACS analysis. A gate was set on the FSC vs. SSC plot to allow analysis only of cells with the size of neutrophils.
The percentage of blocking activity (BA) of the C5a-C5aR axis blockade test material was calculated using the formula below. Where MFI is the mean fluorescence intensity emitted from the CD11b-bound FITC on neutrophils. BA (%)=(MFIPatient plasma−MFITest material spiked patient plasma)÷(MFIPatient plasma−MFIhuPP)×100 b) Statistical Analysis

[2] = system: recombinant human C5a (rhC5a)-induced CD11b upregulation on blood neutrophils; test: CD11b assay in human whole blood stimulated with rhC5a; format: cell-based
Procedure: Human whole blood was stimulated with rhC5a or ZAP. To test the blocking activity of IFX-1 and irrelative control IgG4 on rhC5a, the antibodies were diluted to final Ab/Ag molar ratios of 1:1 and 0.5:1. To test the blocking activity of IFX-1 on eC5a, IFX-1 was diluted to reach final Ab/Ag molar ratios of approximately 4:1/3:1/2:1/1:1/0.5:1. Blood only with buffer served as a non-stimulation control to assess the baseline CD11b expression. Blood with antibody alone was used to determine the effects on CD11b expression of the antibody under non-stimulated condition. The complete mixture (Ab/Ag/blood) was incubated at 37° C. for 20 min to evaluate C5a-induced up-regulation of CD11b. After addition of anti-mouse CD11b:FITC samples were incubated for 30 min on ice to minimize background staining. Granulocytes were gated and mean fluorescence intensity (MFI) of FITC labeled (CD11b expressing) granulocytes was examined by flow cytometer.
Human blood was stimulated with rhC5a or zymosan A, and the complete mixture (Ab/Ag/blood) was incubated at 37° C. for 20 min to stimulate the C5a-induced up-regulation of CD11b. […] After lysis, cells were analyzed using flow cytometer. On the FSC/SSC dot-plot, granulocytes were gated and mean fluorescence intensity (MFI) of FITC labeled (CD11b expressing) granulocytes was examined for the whole sample set. […]

[3] = system: zymosan-induced generation of IL-8 in human whole blood; test: Cytokine IL-8 ELISA after zymosan A stimulation of human whole blood; format: cell-based; details: various concentrations of zymosan A, FIG. 4
Procedure: Human IL-8 ELISA was performed as recommended in the instruction manual under section “Assay procedure” (eBioscience Inc., San Diego, CA). Briefly, coating was performed overnight at 4° C. using 100 μl 1× capture antibody. Plates were blocked using 200 μl 1× assay diluents at RT for 1 h. Standard stock solutions were diluted with 1× assay diluents to the desired concentration, followed by 6 serial 1:2 dilutions. Sample supernatants were diluted as required in 1× assay diluents. According to the “Assay procedure”, 100 μl of standard dilutions and sample dilutions were added to the coated plate and incubated at RT for 1 h, followed by the incubation with 100 μl 1× detection antibody (RT, 1 h) and 100 μl 1× avidin-HRP (RT, 30 min). Color development was performed with 100 μl TMB substrate solution at RT for 10 min in the dark and was terminated with 100 μl stop solution. Absorbance was read out within 30 min using the plate reader at 450 nm. Zero standard value (blank) was subtracted from all standards and samples. Cytokine concentration of samples was calculated using a log(x)/log(y) standard curve of included standard samples.
In the same experimental set-up, IL-8 levels were measured and used to assess the inflammatory response. IL-8 concentrations after various doses of zymosan A stimulation ranged from 458 pg/ml to 3218 pg/ml in the absence of IFX-1. […]

[4] = system: HS plasma-induced CD11b upregulation on blood neutrophils; test: CD11b upregulation on blood neutrophils induced by HS plasma (human whole blood model); format: cell-based; details: HS plasma samples Pat. 088 and Pat. 092, FIG. 6
From the text: To determine the role of C5a in the HS plasma sample on the neutrophil activation, the HS plasma samples with high levels of C5a were chosen and assessed by employing the human whole blood model. […] Recombinant human C5a was used as the positive control, while the plasma from healthy volunteers was chosen as the negative control. […] From these novel results the inventors concluded that blockade of C5a in HS patients is sufficient to achieve a strong suppression on neutrophil activation.

[5] = system: cynomolgus monkey; test: Nonclinical tests and studies including GLP toxicology studies in cynomolgus monkey; details: in vitro/ex vivo tests and in vivo studies incl. GLP toxicology in cynomolgus monkey
[6] = target: T1, human C5a (Homo sapiens, UniProt P01031); test: In vitro blocking of C5a-induced biological effects; format: cell-based; details: experimental in vitro settings
T1 sequence (P01031 678-751 limits assumed): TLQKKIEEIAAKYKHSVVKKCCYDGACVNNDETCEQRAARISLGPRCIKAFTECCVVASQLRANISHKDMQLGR

[7] = system: patients with moderate to severe hidradenitis suppurativa
Procedure: Primary objective of the trial was to explore the safety and tolerability of IFX-1 administered over 8 weeks. Secondary objectives of the trial were to assess the pharmacokinetics and pharmacodynamics of IFX-1 as well as to generate preliminary data on the efficacy of IFX-1 on clinical endpoints (e.g., HiSCR, DLQI, VAS for disease status, VAS for pain, HS-PGA, modified Sartorius Score) to generate further hypotheses. The enrolled patients were treated with 800 mg IFX-1 twice in the first week and once a week thereafter for the total 8-week treatment; i.e. IFX-1 was administered in nine intravenous doses of 800 mg IFX-1 on days 1, 4, 8, 15, 22, 29, 36, 43, and 50. All patients were followed up for 12 additional weeks.
• 1. Male or female patients ≥18 years old • 2. Written informed consent • 3. Diagnosis of HS for at least 1 year • 4. HS lesions in at least 2 distinct anatomic areas, one of which is Hurley Stage II or III • 5. Total AN (abscesses and nodules) count ≥3 • 6. Patients with either primary or secondary failure of biological treatment or are not eligible for treatment with other biologicals • NOTE: a primary failure is defined as an at least 12 week treatment with a biological compound without effect and a secondary failure as achieving an initial response after at least 12 week treatment with a biological compound followed by a relapse. • 7. […]

[8] = system: human; details: in vivo
[9] = HS patient plasma Pat. 088, test material 50 nM
[10] = HS patient plasma Pat. 088, test material 20 μM
[11] = HS patient plasma Pat. 092, test material 50 nM
[12] = HS patient plasma Pat. 092, test material 20 μM
[13] = HS patient plasma Pat. 088, test material 100 μM
[14] = HS patient plasma Pat. 088, test material 500 μM
[15] = HS patient plasma Pat. 092, test material 100 μM
[16] = HS patient plasma Pat. 092, test material 500 μM
[17] = HS patient plasma Pat. 088, test material 20 nM
[18] = HS patient plasma Pat. 092, test material 20 nM

“Ac-Phe-cyclo(Orn-Pro-D-Cha-Trp-Arg) [PMX-53]” was tested, and the “CD11b upregulation induced by HS patient plasma samples as well as by rhC5a” value ([1]; 20 μM, FIG. 9B) was “completely abrogated”, the “Blocking activity (%)” value [1, 9] was 55.46% and the “CD11b (mean MFI)” value [1, 9] was 4728.5. For the same molecule, the “Blocking activity (%)” value [1, 10] was 104.48%, the “CD11b (mean MFI)” value [1, 10] was 2027.5 and the “Blocking activity (%)” value [1, 11] was 56.69%. For the same molecule, the “CD11b (mean MFI)” value [1, 11] was 4657.5, the “Blocking activity (%)” value [1, 12] was 108.59% and the “CD11b (mean MFI)” value [1, 12] was 1912.5. For the same molecule, the “CD11b (mean MFI)” value ([1]; huPP + rhC5a (20 nM), test material 50 nM) was 4235.5, the “CD11b (mean MFI)” value ([1]; huPP + rhC5a (20 nM), test material 20 μM) was 1851 and the “CD11b (mean MFI)” value ([1]; huPP, non-stimulated, test material 50 nM) was 2053.5. For the same molecule, the “CD11b (mean MFI)” value ([1]; huPP, non-stimulated, test material 20 μM) was 2218.5, the “Blocking activity (%)” value ([1]; rhC5a-spiked huPP (20 nM rhC5a), test material 50 nM) was 50.30% and the “Blocking activity (%)” value ([1]; rhC5a-spiked huPP (20 nM rhC5a), test material 20 μM) was 107.88%.

For `Cc1ccc(NC(=O)[C@H]2CCCN(C(=O)c3c(C)cccc3F)[C@H]2c2ccc(NC3CCCC3)cc2)cc1C(F)(F)F` [Avacopan, (2R,3S)-2-[4-(cyclopentylamino)phenyl]-1-(2-fluoro-6-methylbenzoyl)-N-[4-methyl-3-(trifluoromethyl)phenyl]piperidine-3-carboxamide], the “CD11b upregulation induced by HS patient plasma” value ([1]; 500 μM, FIG. 11) was “completely blocked”, the “Blocking activity (%)” value [1, 13] was 77.35% and the “CD11b (mean MFI)” value [1, 13] was 5289. The “Blocking activity (%)” value [1, 14] was 104.57%, the “CD11b (mean MFI)” value [1, 14] was 3027 and the “Blocking activity (%)” value [1, 15] was 79.60%. For the same molecule, the “CD11b (mean MFI)” value [1, 15] was 5000, the “Blocking activity (%)” value [1, 16] was 104.17% and the “CD11b (mean MFI)” value [1, 16] was 3081.5.

B1: IFX-1: chimeric monoclonal IgG4 antibody which specifically binds to the soluble human complement split product C5a (antibody, V domains shown)
VH: QVQLQQSGPQLVRPGTSVKISCKASGYSFTTFWMDWVKQRPGQGLEWIGRIDPSDSESRLDQRFKDRATLTVDKSSSTVYMQLSSPTSEDSAVYYCARGNDGYYGFAYWGQGTLVTVSS
VL: DIVLTQSPASLAVSLGQRATISCKASQSVDYDGDSYMKWYQQKPGQPPKLLIYAASNLQSGIPARFSGSGSGTDFTLNIHPVEEEDAATYYCQQSNEDPYTFGGGTKLEIK
For B1, the “blocking of rhC5a-stimulated CD11b up-regulation on human neutrophils” value ([2]; human whole blood, Ab/Ag molar ratios 1:1 and 0.5:1, FIG. 1) was “completely blocked”, the “blocking of CD11b up-regulation stimulated by rhC5a” value ([2]; positive control of the zymosan A whole blood experiment, FIG. 3) was 100% and the “reduction rate of IL-8 generation” value [3] was “up to 54%”. For the same molecule, the “suppression of CD11b upregulation induced by HS plasma” value [4] was 100%, the “CD11b upregulation by rhC5a and HS patient plasma samples (Pat. 088 and Pat. 092)” value ([1]; 20 nM, FIG. 10) was “completely abolish” and the “Blocking activity (%)” value [1, 17] was 101.74%. The “CD11b (mean MFI)” value [1, 17] was 2209, the “Blocking activity (%)” value [1, 18] was 103.70% and the “CD11b (mean MFI)” value [1, 18] was 2147. For the same molecule, the “CD11b (mean MFI)” value ([1]; huPP + rhC5a (20 nM), test material 20 nM) was 2067, the “CD11b (mean MFI)” value ([1]; huPP, non-stimulated, test material 20 nM) was 2352 and the “Blocking activity (%)” value ([1]; rhC5a-spiked huPP (20 nM rhC5a), test material 20 nM) was 104.29%. For the same molecule, the “toxicological or safety concerns in nonclinical tests and studies” value [5] was “None of the conducted nonclinical tests and studies revealed any toxicological or safety concerns”, the “efficiency of neutralizing the effects of 2 molecules C5a by one antibody” value [6] was roughly 100% and the HiSCR responders ([7]; out of 11 patients treated up to Day 56, 800 mg i.v.) was 8 patients. For the same molecule, the HiSCR response rate ([7]; treatment period of 8 weeks, Day 56, 95% confidence interval 43% to 91%) was 72.7% and the “safety laboratory parameters, vital signs and ECG parameters” value [8] was “no clinically relevant time or dose-related changes”.
